According to US8697081B2, “Method of modulating neovascularization” (The Regents of the University of Michigan, priority 2008, dated 2014):

How the values were obtained:
human endothelial cells = experiment: Tubulogenesis (patent tubules) in 3-D fibrin gel; assay type: cell-based; settings: 50 μM blebbistatin
Method: Endothelial cells were isolated from human umbilical cord veins by collagenase digestion and cultured in Medium 199 (Gibco) containing 20% human serum, 50 μg/ml endothelial cell growth supplement (BD Biosciences), 100 U/ml penicillin, and 100 μg/ml streptomycin (Hiraoka et al. 1998. Cell, 95(3): 365-377). […]
(Chernousov et al. 1991. J. Biol. Chem., 266(17): 10851-10858; Tomasini-Johansson et al. 2001. J. Biol. Chem., 276(26): 23430-23439; Mao and Schwarzbauer. 2005. Matrix Biol., 24(6): 389-399; and Tomasini-Johansson et al. 2006. Matrix Biol., 25(5): 282-293). […] Cell number in 3-D cultures was determined by hemacytometry after dissolving gels with 2 mg/ml bacterial collagenase (Worthington) while the number of patent tubules was determined in randomly selected cross-sections. Fn matrix assembly and cell morphology were monitored by confocal laser microscopy. To examine cell migration, endothelial cells were embedded in a 100 μl fibrin gel for 2 hours, then placed within a 500 μl gel for 8 days in the presence of Del29, FUD, control IgG, or L8, after which migration from the inner gel was assessed.

[1] = test system: Human umbilical vein endothelial cells; experiment: Chromatin organization (GFP-H2B, H3K9me3) and histone H3/H4 acetylation; assay type: cell-based; settings: 3-D culture, VEGF/HGF-stimulated, blebbistatin or nocodazole
From the text: At sites of tissue damage, inflammation or neoplasia, fibrinogen is converted into a 3-D meshwork of fibrin fibrils that serve as a structural support for endothelial cells undergoing neovascularization (Chun et al. 2006. Cell, 125: 577-591; Hiraoka et al. 1998. Cell, 95: 365-377; Schafer and Werner. 2008. Nat. Rev. Mol. Cell Biol., 9: 628-638; Zhou et al. 2008. Genes Dev., 22: 1231-1243). This process can be recapitulated in vitro by embedding serum-supplemented human endothelial cells within a 3-D fibrin gel in the presence of the pro-angiogenic factors, VEGF and HGF. Human umbilical vein endothelial cells were isolated from umbilical cords by perfusion of the umbilical vein with type 3 collagenase (Worthington, Lakewood, N.J.) and cultured in Medium-199 (Invitrogen, Carlsbad, Calif.) with 20% human serum and 50 μg/ml endothelial cell growth supplement (ECGS; BD Biosciences, Franklin Lakes, N.J.). For 3-D culture, endothelial cells were suspended in a solution of thrombin and aprotinin (Sigma, St. Louis, Mo.) and mixed 1:1 with a solution of 6 mg/ml fibrinogen (Calbiochem, Gibbstown, N.J.). Vasculogenesis was triggered by treatment with 100 ng/ml VEGF, 50 ng/ml HGF (Genentech, San Francisco, Calif.). Fibronectin fibrillogenesis was tracked in 3-D by co-culture with human fibronectin (Sigma) labeled with Alexa-594 (Invitrogen).
Yet, multi-lobed nuclei and anomalous nuclear pore complex distributions can be observed in laminopathies, a pleiotropic series of genetic disorders wherein mutations in lamin or emerin impact chromatin organization, histone modifications, and transcriptional activity (Csoka et al., 2004. Aging Cell, 3: 235-243; Dechat et al., 2008. Genes Dev, 22: 832-853; Dillon, 2008. Dev Cell, 15: 182-186; Malhas et al., 2007. J. Cell Biol., 176: 593-603; Mendjan et al., 2006. Mol. Cell, 21: 811-823; Shumaker et al., 2006. Proc. Natl. Acad. Sci. USA, 103: 8703-8708; Tang et al., 2008. J. Cell Sci., 121: 1014-1024). To determine whether VEGF/HGF-dependent changes in nuclear shape similarly affect chromatin structure/function, chromatin packaging was tracked at the single-endothelial cell level by monitoring GFP-tagged histone H2B or pericentromeric constitutive heterochromatin localization. […] heterochromatin localization was visualized by immunostaining for trimethylated lysine 9 of histone H3 (H3K9me3) (Shumaker, supra; Tang, supra).
Histone acetylation can be regulated by chromatin positioning within the nucleus (Finlan et al., 2008. PLoS Genet, 4: e1000039; Somech et al., 2005. J. Cell Sci., 118: 4017-4025). Thus, the acetylation status of histones H3 and H4 was assessed as functional markers of changes in chromatin organization. […]

[2] = test system: chorioallantoic membrane (CAM) of live chicks; experiment: Chick chorioallantoic membrane (CAM) angiogenesis into 3-D matrices; assay type: in vivo; settings: 3 days, VEGF and HGF, versus Del29 control
Method: The functional role for fibrillogenesis in tissue sites undergoing active angiogenesis in vivo was assessed. To this end, 3-D composite gels of fibrin and type I collagen were placed atop the chorioallantoic membrane (CAM) of live chicks, and angiogenesis was initiated in the presence of FUD or the Del29 peptide control. In particular, 3-D matrices of type I collagen or a type I collagen/fibrin composite matrix were cast in transwell tissue culture inserts (24 well size) perforated with a 25 gauge needle. A 30 μl Matrigel (BD Biosciences) reservoir was placed atop the matrix containing 200 ng VEGF, 100 ng HGF, and either Del29 or FUD. The entire apparatus was placed atop the dropped CAM of 10-11 day old fertile chicken eggs. Following incubation in a humidified incubator at 37° for 3 days, the matrices were harvested. Vascular ingrowth was monitored by light microscopy following H&E staining. In some experiments, FITC-Fn (McKeown-Longo and Mosher. 1985. J. Cell. Biol., 100(2): 364-74) was supplemented in the matrices during the culture period, and Fn fibrillogenesis within the gels was monitored by confocal laser microscopy.

Compound	endothelial cell tubulogenesis (human endothelial cells)	chromatin distribution [1]	levels of acetylated histones H3 and H4 [1]	Fn matrix assembly in ECM construct [2]	neovessel formation (vascular ingrowth) [2]
Cc1ccc2c(c1)C(=O)C1(O)CCN(c3ccccc3)C1=N2 (centres unmarked) [blebbistatin]	blocked completely	chromatin condensations at the nuclear periphery with increased interchromatin space	decreased levels	–	–
FUD: 49-residue functional upstream domain of Streptococcus pyogenes F1 adhesion protein, SEQ ID NO: 10; fibronectin fibril assembly inhibitor (KDQSPLAGESGETEYITEVYGNQQNPVDIDKKLPNETGFSGNMVETEDT; Streptococcus pyogenes; Functional Upstream Domain (FUD) of F1 adhesion protein)	–	–	–	almost completely inhibited	ablated
